From patent publication US20120029047A1, “USE OF HDAC INHIBITORS FOR THE TREATMENT OF BONE DESTRUCTION” (priority 2007, published 2012)

Columns and labels:
MM1S cells [1] = assay: MM1S disseminated multiple myeloma model, tumor burden by bioluminescence; format: in vivo, SCID-beige mice
Method: Female SCID-beige mice were injected with MM1S cells (2×10^6) intravenously (iv) into the tail vein on Day 0. Treatment was initiated on Day 10 when the average tumor burden, as determined by bioluminescence, reached approximately 8.0×10^5-1.0×10^6 photons per second. All treatment groups consisted of 8 animals. […] Tumor burden and body weights were recorded once a week during the active dosing period. In vivo micro-computed tomography (microCT) images were acquired in live animals on day 32 and 33 (Study #1) or Day 34 and 35 (Study #2). In the second study, animals were individually monitored until achievement of clinical endpoint. Treatments were started on Day 10 post-iv tail implantation (2.0 million cells/animal). […] Vehicle control (D5W) was administered ip times per week, for 3 weeks. Initial group size: 8 animals. Final efficacy data and body weight change were calculated 72 hours post-last dose. Treatments were started on Day 10 post-iv tail implantation (2.0 million cells/animal). […] Vehicle control (D5W) was administered ip times per week, for 3 weeks. Initial group size: 8 animals. With respect to FIG. 2, treatments were started on Day 11 post-iv tail implantation (2.0 million cells/animal). NVP-LBH589-CU was administered ip, at 15 mg/kg (A), or 10 and 20 mg/kg (B), 5 times a week (qd×5/wk) for 4 weeks. Vehicle control (D5W) was administered ip 5 times a week (qd×5/wk), for 4 weeks. Bortezomib was administered iv, at 0.2 mg/kg, once per week (qwk) or 1 mg/kg, twice per week in Study #0879 for 4 weeks (biwk) (B). Initial group size: 8 animals. Final efficacy data are shown in the A panel for Study #0879 and B panel for Study #0942. Body weight changes were calculated on 24 hours post-last dose for each study (right panels).

MM1S tumor bearing mice [2] = assay: In vivo microCT analysis of tibial trabecular bone density; parameters: species or system SCID-beige mice; settings: for increase in median trabecular bone density: after 4 weeks of treatment
Text: (§1) Animals were anesthetized with 2% isoflurane mixed with oxygen (2 L/min.) and then placed in a mouse holder (custom made, Peter Ingold, NIBR Basel) specifically designed to align both tibiae and mounted into an in vivo high resolution microCT scanner (VivaCT40, Scanco, Switzerland). To insure correct positioning of the mouse, a scout view of bilateral tibia bones and knee joints was taken and the region of interest (ROI, 2.23 mm in length) was positioned to start at the growth plate extending distally over the area of the trabecular bone (FIG. 3). The scanner was set to a nominal isotropic voxel size of 21 μm, referred to as medium/standard resolution. The X-ray tube was operated at 55 kVp and 145 mA with a focal spot size of 5 μm. Five hundred projection images were acquired per scan with an integration time of 180 ms. Tomographic images were reconstructed on a VMS cluster (HP Alpha, HP, Palo Alto, USA) in 1024×1024 pixel matrices using a conebeam back projection procedure resulting in 315 axial slices.
(§2) For determination of trabecular and cortical bone features, a 2.23 mm region of interest was placed to start at the growth plate extending distally. 106 axial slices were obtained using a μ-CT VivaCT40Scanner (SCANCO, Switzerland) with 55 kv, 145 mA, 180 ms integration time and 21 μm resolution. Trabecular bone density (BV/TV) was measured in a 0.735 mm region of a tibia (9 slices proximal and 25 slices distal from the tibial tuberosity) using SCANCO software (SCANCO, Switzerland) with a threshold of 275 is used to define calcified bone volume (BV). Cortical bone density (BV/TV) was measured in a 1.5 mm region of a tibia (15 slices proximal and 55 slices distal from the tibial tuberosity) using SCANCO software (SCANCO Switzerland) with a threshold of 275. Three-dimensional analysis was performed on the determined regions utilizing the SCANCO operational software. All treatment groups were scanned over the course of two days, with equal numbers of animals from each treatment group scanned each day.
FIG. 4 describes a […] region of interest was placed to start at the growth plate extending distally. 106 axial slices were obtained using a μ-CT VivaCT40Scanner (SCANCO, Switzerland) with 55 kv, […], 180 ms integration time and 21 μm resolution. Trabecular bone density, bone volume/total volume (BV/TV), was measured in a 0.735 mm region of a tibia (10 slices proximal and 25 slices distal from the tibial tuberosity) using SCANCO software (SCANCO, Switzerland) with a threshold of 275. Cortical bone density, bone volume/total volume (BV/TV), was measured in a 1.5 mm region of a tibia (15 slices proximal and 55 slices distal from the tibial tuberosity) using SCANCO software (SCANCO Switzerland) with a threshold of 275.

MM1S cells [3] = assay: Time to clinical endpoint in MM1S model (Study #0942); format: in vivo, SCID-beige mice; settings: for Median Time to Clinical Endpoint: endpoint = clinical score of 3
Method: Female SCID-beige mice were injected with MM1S cells (2×10^6) intravenously (iv) into the tail vein on Day 0. Treatment was initiated on Day 10 when the average tumor burden, as determined by bioluminescence, reached approximately 8.0×10^5-1.0×10^6 photons per second. All treatment groups consisted of 8 animals. […] Tumor burden and body weights were recorded once a week during the active dosing period. In vivo micro-computed tomography (microCT) images were acquired in live animals on day 32 and 33 (Study #1) or Day 34 and 35 (Study #2). In the second study, animals were individually monitored until achievement of clinical endpoint. […] Each animal was monitored daily for progression of signs of disease progression, including mobility and general health. Animals were scored on a clinical scale from 0-4. […] These animals were removed from analysis due to treatment related deaths. […] The median time to endpoint for the vehicle treated animals was 37 days.

TRACP5B = assay: Serum bio-marker TRACP5B ELISA (MouseTRAP Assay); format: in vivo, mouse
Method: A serum marker of bone metabolism, TRACP5B, was assessed for mouse serum changes. The MouseTRAP™ Assay kit is an ELISA assay (Cat#SB-TR103, IDS Fountain Hills, Ariz.). Briefly, polyclonal […] TRACP5B antibodies are incubated in 96 well plates coated with anti-rabbit IgG. This ELISA kit is specific for mouse TRACP5B only. This assay has a reported sensitivity of 0.1 U/L.
TRACP5B serum levels were evaluated as a measure of osteoclast activity. The level of a TRACP5B was analyzed in FIG. 7 and Table 12.

MM1S tumor bearing mice [4] = assay: In vivo microCT analysis of tibial cortical bone density; parameters: species or system SCID-beige mice; settings: Study #0879, 15 mg/kg, tibia
Text: as §1, with “The X-ray tube was operated at 55 kVp and 145 mA with a focal spot size of 5 μm. Five hundred projection images were acquired per scan with an integration time of 180 ms. Tomographic images were reconstructed on a VMS cluster (HP Alpha, HP, Palo Alto, USA) in 1024×1024 pixel matrices using a conebeam back projection procedure resulting in 315 axial slices.” left out
as §2, with “106 axial slices were obtained using a μ-CT VivaCT40Scanner (SCANCO, Switzerland) with 55 kv, 145 mA, 180 ms integration time and 21 μm resolution.” left out, “All treatment groups were scanned over the course of two days, with equal numbers of animals from each treatment group scanned each day.” left out

[5] = Study #0879, 15 mg/kg IP qdx5, 31 days after implantation
[6] = Study #0942, 10 mg/kg IP qdx5, 35 days after implantation
[7] = Study #0942, 20 mg/kg IP qdx5, 35 days after implantation

With Cc1[nH]c2ccccc2c1CCNCc1ccc(/C=C/C(=O)NO)cc1 [LBH589, N-hydroxy-3-[4-[[[2-(2-methyl-1H-indol-3-yl)-ethyl]-amino]methyl]phenyl]-2E-2-propenamide] the “% Regression” value (MM1S cells [1]; [5]) was “None”, the “% T/C” value (MM1S cells [1]; [5]) was 22% and the “Delta Mean Tumor Burden (mean ± SEM)” value (MM1S cells [1]; [5]) was 292.4E+6 ± 92.6E+6 photons/sec. The “reduction in tumor burden” value (MM1S cells [1]; Study #0879, 15 mg/kg qdX5, Day 31) was about 78%, the “% Regression” value (MM1S cells [1]; [6]) was “None” and the “% T/C” value (MM1S cells [1]; [6]) was 31%. For the same molecule, the “Delta Mean Tumor Burden (mean ± SEM)” value (MM1S cells [1]; [6]) was 348.5E+6 ± 49.6E+6 photons/sec, the “reduction in tumor burden” value (MM1S cells [1]; Study #0942, 10 mg/kg qdX5, Day 35) was about 79% and the “% Regression” value (MM1S cells [1]; [7]) was “None”. For the same molecule, the “% T/C” value (MM1S cells [1]; [7]) was 9%, the “Delta Mean Tumor Burden (mean ± SEM)” value (MM1S cells [1]; [7]) was 107.7E+6 ± 42.6E+6 photons/sec and the “reduction in tumor burden” value (MM1S cells [1]; Study #0942, 20 mg/kg qdX5, Day 35) was about 91%. For the same molecule, the “significance of reduction in tumor burden” value (MM1S cells [1]; both studies (#0879 and #0942)) was “statistically significant”, the “increase in mean trabecular bone density” value (MM1S tumor bearing mice [2]; Study #0879, 15 mg/kg, after 3 weeks of treatment) was 5.5 fold and the “Mean Trabecular Density (BV/TV)” value (MM1S tumor bearing mice [2]; Study #0879, 15 mg/kg, tibia) was 14.48 % BV/TV. The “increase in median trabecular bone density” value (MM1S tumor bearing mice [2]; Study #0942, 10 mg/kg) was 11.8 fold, the “Median Trabecular Density (BV/TV)” value (MM1S tumor bearing mice [2]; Study #0942, 10 mg/kg, tibia) was 8.23 % BV/TV and the “increase in median trabecular bone density” value (MM1S tumor bearing mice [2]; Study #0942, 20 mg/kg) was 19.1 fold. The “Median Trabecular Density (BV/TV)” value (MM1S tumor bearing mice [2]; Study #0942, 20 mg/kg, tibia) was 12.89 % BV/TV, the “Median Time to Clinical Endpoint” value (MM1S cells [3]; Study #0942, 10 mg/kg) was 54 days and the “animals without symptoms of disease 80 days after implant” value (MM1S cells [3]; Study #0942, 20 mg/kg) was “One of the remaining six”. The “Median Time to Clinical Endpoint” value (MM1S cells [3]; Study #0942, 20 mg/kg) was 61 days, the “Mean TRACP5B Serum Levels” value (TRACP5B; Study #0879, 15 mg/kg) was 7.1 and the “decrease of serum levels of TRACP5B compared to vehicle” value (TRACP5B; Study #0879, LBH589 alone) was 41%. For the same molecule, the “Mean Cortical Density (BV/TV)” value (MM1S tumor bearing mice [4]) was 98.3%.
